Activity calls are given as the source filed them. The rule behind the calls is not given here.
Legend:
[1] = test system: Tyrosine-protein kinase ABL1 (Homo sapiens), P00519 [Q252H]; experiment: Inhibition of T7 bacteriophage fused human nonphosphorylated ABL1 Q252H mutant at 10 uM by KINOMEscan analysis relative to control
[2] = target: Mitogen-activated protein kinase 3 (Homo sapiens) (UniProt P27361); experiment: Inhibition of T7 bacteriophage fused human ERK1 at 10 uM by KINOMEscan analysis relative to control
[3] = target: Vascular endothelial growth factor receptor 1 (Homo sapiens) (UniProt P17948); experiment: Inhibition of T7 bacteriophage fused human FLT1 at 10 uM by KINOMEscan analysis relative to control
[4] = test system: Receptor-type tyrosine-protein kinase FLT3 (Homo sapiens), P36888 [D835H]; experiment: Inhibition of T7 bacteriophage fused human FLT3 D835H mutant at 10 uM by KINOMEscan analysis relative to control
[5] = target: Vascular endothelial growth factor receptor 3 (Homo sapiens) (UniProt P35916); experiment: Inhibition of T7 bacteriophage fused human FLT4 at 10 uM by KINOMEscan analysis relative to control
[6] = target: Hormonally up-regulated neu tumor-associated kinase (Homo sapiens) (UniProt P57058); experiment: Inhibition of T7 bacteriophage fused human HUNK at 10 uM by KINOMEscan analysis relative to control
[7] = test system: Mast/stem cell growth factor receptor Kit (Homo sapiens), P10721 [A829P]; experiment: Inhibition of T7 bacteriophage fused human KIT A829P mutant at 10 uM by KINOMEscan analysis relative to control
[8] = target: Serine/threonine-protein kinase MARK2 (Homo sapiens) (UniProt Q7KZI7); experiment: Inhibition of T7 bacteriophage fused human MARK2 at 10 uM by KINOMEscan analysis relative to control
[9] = target: Serine/threonine-protein kinase Nek2 (Homo sapiens) (UniProt P51955); experiment: Inhibition of T7 bacteriophage fused human NEK2 at 10 uM by KINOMEscan analysis relative to control
[10] = test system: Phosphatidylinositol 4,5-bisphosphate 3-kinase catalytic subunit alpha isoform (Homo sapiens), P42336 [E542K]; experiment: Inhibition of T7 bacteriophage fused human PIK3CA E542K mutant at 10 uM by KINOMEscan analysis relative to control
[11] = test system: Phosphatidylinositol 4,5-bisphosphate 3-kinase catalytic subunit alpha isoform (Homo sapiens), P42336 [I800L]; experiment: Inhibition of T7 bacteriophage fused human PIK3CA I800L mutant at 10 uM by KINOMEscan analysis relative to control
[12] = target: Serine/threonine-protein kinase pim-3 (Homo sapiens) (UniProt Q86V86); experiment: Inhibition of T7 bacteriophage fused human PIM3 at 10 uM by KINOMEscan analysis relative to control
[13] = target: Serine/threonine-protein kinase N1 (Homo sapiens) (UniProt Q16512); experiment: Inhibition of T7 bacteriophage fused human PKN1 at 10 uM by KINOMEscan analysis relative to control
[14] = target: Serine/threonine-protein kinase PLK3 (Homo sapiens) (UniProt Q9H4B4); experiment: Inhibition of T7 bacteriophage fused human PLK3 at 10 uM by KINOMEscan analysis relative to control
[15] = target: Protein-tyrosine kinase 2-beta (Homo sapiens) (UniProt Q14289); experiment: Inhibition of T7 bacteriophage fused human PYK2 at 10 uM by KINOMEscan analysis relative to control
[16] = target: Serine/threonine-protein kinase RIO1 (Homo sapiens) (UniProt Q9BRS2); experiment: Inhibition of T7 bacteriophage fused human RIOK1 at 10 uM by KINOMEscan analysis relative to control
[17] = target: Tyrosine-protein kinase CSK (Homo sapiens) (UniProt P41240); experiment: Inhibition of T7 bacteriophage fused human CSK at 10 uM by KINOMEscan analysis relative to control; values are per cent of control
[18] = target: Tyrosine-protein kinase Fer (Homo sapiens) (UniProt P16591); experiment: Inhibition of T7 bacteriophage fused human FER at 10 uM by KINOMEscan analysis relative to control; values are per cent of control
[19] = target: Tyrosine-protein kinase Fgr (Homo sapiens) (UniProt P09769); experiment: Inhibition of T7 bacteriophage fused human FGR at 10 uM by KINOMEscan analysis relative to control; values are per cent of control
[20] = target: Serine/threonine-protein kinase NLK (Homo sapiens) (UniProt Q9UBE8); experiment: Inhibition of T7 bacteriophage fused human NLK at 10 uM by KINOMEscan analysis relative to control; values are per cent of control
[21] = target: Serine/threonine-protein kinase 24 (Homo sapiens) (UniProt Q9Y6E0); experiment: Inhibition of T7 bacteriophage fused human MST3 at 10 uM by KINOMEscan analysis relative to control; values are per cent of control
[22] = target: Ephrin type-A receptor 5 (Homo sapiens) (UniProt P54756); experiment: Inhibition of T7 bacteriophage fused human EPHA5 at 10 uM by KINOMEscan analysis relative to control; values are per cent of control
[23] = target: Fibroblast growth factor receptor 2 (Homo sapiens) (UniProt P21802); experiment: Inhibition of T7 bacteriophage fused human FGFR2 at 10 uM by KINOMEscan analysis relative to control; values are per cent of control
[24] = target: Serine/threonine-protein kinase DCLK3 (Homo sapiens) (UniProt Q9C098); experiment: Inhibition of T7 bacteriophage fused human DCAMKL3 at 10 uM by KINOMEscan analysis relative to control; values are per cent of control
[25] = test system: Mast/stem cell growth factor receptor Kit (Homo sapiens), P10721 [V559D,T670I]; experiment: Inhibition of T7 bacteriophage fused human KIT V559D/T670I mutant at 10 uM by KINOMEscan analysis relative to control; values are per cent of control
[26] = target: Serine/threonine-protein kinase A-Raf (Homo sapiens) (UniProt P10398); experiment: Inhibition of ARAF Lys2 labeling site in human HEL cell lysate at 10 uM by KiNativ profiling analysis relative to control; type: subcellular
[27] = target: Leucine-rich repeat serine/threonine-protein kinase 2 (Homo sapiens) (UniProt Q5S007); experiment: Inhibition of wildtype GFP-tagged LRRK2 phosphorylation at Ser910 residue (unknown origin) transfected in HEK293 cells upto 3 uM incubated for 90 mins by immunoblot analysis; type: cell-based
[28] = target: Leucine-rich repeat serine/threonine-protein kinase 2 (Homo sapiens) (UniProt Q5S007); experiment: Inhibition of LRRK2 phosphorylation at Ser935 residue in EBV immortalized human derived lymphoblastoid cells at 0.01 to 3 uM incubated for 90 mins by immunoblot analysis; type: cell-based; conditions: Lymphoblastoid cell, dose 0.01-3 µM
[29] = target: 3-phosphoinositide-dependent protein kinase 1 (Homo sapiens) (UniProt O15530); experiment: Inhibition of PDK1 Lys1 labeling site in human PC-3 cell lysate at 10 uM by KiNativ profiling analysis relative to control

Sequence of Leucine-rich repeat serine/threonine-protein kinase 2 (Homo sapiens) (Q5S007 whole entry): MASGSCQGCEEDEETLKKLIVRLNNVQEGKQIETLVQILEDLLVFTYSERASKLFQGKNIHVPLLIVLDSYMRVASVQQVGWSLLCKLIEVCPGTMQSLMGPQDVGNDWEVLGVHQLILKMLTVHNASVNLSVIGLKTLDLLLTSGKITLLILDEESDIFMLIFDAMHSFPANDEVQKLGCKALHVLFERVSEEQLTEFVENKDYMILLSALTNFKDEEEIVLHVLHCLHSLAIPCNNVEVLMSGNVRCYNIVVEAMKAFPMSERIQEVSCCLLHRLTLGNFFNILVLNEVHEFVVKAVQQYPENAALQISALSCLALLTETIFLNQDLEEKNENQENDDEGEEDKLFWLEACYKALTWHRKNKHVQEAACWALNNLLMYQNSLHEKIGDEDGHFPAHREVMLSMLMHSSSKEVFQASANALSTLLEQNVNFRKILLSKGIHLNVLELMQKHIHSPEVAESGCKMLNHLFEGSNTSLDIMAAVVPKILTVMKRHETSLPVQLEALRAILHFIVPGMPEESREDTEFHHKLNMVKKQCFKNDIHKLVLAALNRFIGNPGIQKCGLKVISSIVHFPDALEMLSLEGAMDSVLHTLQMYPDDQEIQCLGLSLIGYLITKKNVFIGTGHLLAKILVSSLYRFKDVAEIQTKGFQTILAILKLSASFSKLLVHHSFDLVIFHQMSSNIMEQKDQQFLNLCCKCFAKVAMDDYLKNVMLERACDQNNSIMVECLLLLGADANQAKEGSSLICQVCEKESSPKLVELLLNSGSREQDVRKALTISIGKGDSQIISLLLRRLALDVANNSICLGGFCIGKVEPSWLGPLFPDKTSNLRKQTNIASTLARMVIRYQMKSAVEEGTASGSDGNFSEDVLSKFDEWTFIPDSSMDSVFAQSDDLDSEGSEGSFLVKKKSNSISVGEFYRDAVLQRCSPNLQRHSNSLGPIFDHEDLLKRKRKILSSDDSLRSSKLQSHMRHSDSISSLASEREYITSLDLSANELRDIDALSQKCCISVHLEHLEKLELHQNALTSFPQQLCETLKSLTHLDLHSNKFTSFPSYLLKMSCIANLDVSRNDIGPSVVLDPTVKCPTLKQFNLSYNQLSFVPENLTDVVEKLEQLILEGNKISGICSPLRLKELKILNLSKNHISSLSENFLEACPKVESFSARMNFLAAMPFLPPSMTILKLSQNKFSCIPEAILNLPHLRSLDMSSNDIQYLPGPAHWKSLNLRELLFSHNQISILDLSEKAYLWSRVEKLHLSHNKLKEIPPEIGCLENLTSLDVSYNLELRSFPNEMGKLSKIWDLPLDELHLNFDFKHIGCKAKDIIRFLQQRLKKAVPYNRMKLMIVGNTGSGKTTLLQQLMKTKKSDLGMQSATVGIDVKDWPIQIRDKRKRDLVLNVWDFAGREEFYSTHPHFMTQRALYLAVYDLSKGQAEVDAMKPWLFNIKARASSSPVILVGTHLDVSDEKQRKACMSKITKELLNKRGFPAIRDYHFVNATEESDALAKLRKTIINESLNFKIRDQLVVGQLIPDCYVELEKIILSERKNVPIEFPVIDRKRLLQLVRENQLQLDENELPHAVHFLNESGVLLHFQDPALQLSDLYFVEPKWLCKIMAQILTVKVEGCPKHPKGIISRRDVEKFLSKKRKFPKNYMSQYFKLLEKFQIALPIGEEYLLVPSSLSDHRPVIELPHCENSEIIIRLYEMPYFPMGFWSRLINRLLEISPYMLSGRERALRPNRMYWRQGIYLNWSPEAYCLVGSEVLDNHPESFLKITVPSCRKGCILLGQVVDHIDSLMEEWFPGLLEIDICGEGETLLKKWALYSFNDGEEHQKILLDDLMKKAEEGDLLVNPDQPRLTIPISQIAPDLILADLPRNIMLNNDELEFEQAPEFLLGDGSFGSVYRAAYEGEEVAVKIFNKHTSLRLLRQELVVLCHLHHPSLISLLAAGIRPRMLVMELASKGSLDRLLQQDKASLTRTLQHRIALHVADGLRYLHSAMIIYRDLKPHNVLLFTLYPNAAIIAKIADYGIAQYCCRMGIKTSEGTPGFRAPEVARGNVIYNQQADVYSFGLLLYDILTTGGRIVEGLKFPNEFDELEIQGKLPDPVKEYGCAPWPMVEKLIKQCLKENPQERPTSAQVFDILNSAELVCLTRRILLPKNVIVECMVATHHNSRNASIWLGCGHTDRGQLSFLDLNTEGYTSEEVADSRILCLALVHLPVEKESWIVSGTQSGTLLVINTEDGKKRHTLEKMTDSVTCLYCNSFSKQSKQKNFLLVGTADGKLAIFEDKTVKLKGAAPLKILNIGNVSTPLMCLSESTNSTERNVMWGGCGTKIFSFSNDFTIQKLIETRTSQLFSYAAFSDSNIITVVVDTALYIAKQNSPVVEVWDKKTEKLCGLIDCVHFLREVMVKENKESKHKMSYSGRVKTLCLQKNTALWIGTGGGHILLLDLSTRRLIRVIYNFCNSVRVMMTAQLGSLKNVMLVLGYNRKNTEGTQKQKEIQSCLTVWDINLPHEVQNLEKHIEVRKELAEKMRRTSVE
Sequence of Serine/threonine-protein kinase 24 (Homo sapiens) (Q9Y6E0 whole entry, looked up, the tested form may be a part): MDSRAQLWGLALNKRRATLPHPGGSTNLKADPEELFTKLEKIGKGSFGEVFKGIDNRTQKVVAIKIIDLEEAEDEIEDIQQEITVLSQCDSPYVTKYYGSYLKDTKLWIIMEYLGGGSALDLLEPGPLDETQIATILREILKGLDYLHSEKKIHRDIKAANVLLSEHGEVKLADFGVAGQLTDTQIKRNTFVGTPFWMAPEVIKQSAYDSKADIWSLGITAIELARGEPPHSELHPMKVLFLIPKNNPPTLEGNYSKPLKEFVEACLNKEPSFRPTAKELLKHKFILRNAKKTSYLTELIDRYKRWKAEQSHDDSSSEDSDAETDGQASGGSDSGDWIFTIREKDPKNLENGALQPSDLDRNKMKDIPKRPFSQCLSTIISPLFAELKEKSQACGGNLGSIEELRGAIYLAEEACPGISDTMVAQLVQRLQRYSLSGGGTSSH
Sequence of Serine/threonine-protein kinase DCLK3 (Homo sapiens) (Q9C098 whole entry, the tested form may be a part): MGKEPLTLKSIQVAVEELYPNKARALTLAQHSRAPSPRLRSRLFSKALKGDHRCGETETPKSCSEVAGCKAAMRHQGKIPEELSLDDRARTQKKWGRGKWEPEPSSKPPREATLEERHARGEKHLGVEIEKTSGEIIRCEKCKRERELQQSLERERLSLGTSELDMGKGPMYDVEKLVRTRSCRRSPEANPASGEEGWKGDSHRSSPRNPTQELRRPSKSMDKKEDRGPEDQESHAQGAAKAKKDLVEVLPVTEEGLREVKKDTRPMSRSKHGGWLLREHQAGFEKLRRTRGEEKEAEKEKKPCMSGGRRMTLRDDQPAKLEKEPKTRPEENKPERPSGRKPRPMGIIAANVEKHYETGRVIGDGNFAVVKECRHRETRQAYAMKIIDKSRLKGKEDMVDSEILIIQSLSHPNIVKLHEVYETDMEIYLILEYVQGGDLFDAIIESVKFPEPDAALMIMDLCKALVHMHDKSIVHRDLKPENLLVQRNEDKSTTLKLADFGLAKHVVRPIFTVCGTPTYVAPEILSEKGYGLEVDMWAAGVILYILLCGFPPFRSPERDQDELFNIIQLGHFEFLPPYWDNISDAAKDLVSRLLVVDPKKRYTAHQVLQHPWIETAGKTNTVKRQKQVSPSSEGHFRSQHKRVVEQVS
Sequence of Phosphatidylinositol 4,5-bisphosphate 3-kinase catalytic subunit alpha isoform (Homo sapiens), P42336 [I800L] (P42336 whole entry I800L, the tested form may be a part, canonical isoform): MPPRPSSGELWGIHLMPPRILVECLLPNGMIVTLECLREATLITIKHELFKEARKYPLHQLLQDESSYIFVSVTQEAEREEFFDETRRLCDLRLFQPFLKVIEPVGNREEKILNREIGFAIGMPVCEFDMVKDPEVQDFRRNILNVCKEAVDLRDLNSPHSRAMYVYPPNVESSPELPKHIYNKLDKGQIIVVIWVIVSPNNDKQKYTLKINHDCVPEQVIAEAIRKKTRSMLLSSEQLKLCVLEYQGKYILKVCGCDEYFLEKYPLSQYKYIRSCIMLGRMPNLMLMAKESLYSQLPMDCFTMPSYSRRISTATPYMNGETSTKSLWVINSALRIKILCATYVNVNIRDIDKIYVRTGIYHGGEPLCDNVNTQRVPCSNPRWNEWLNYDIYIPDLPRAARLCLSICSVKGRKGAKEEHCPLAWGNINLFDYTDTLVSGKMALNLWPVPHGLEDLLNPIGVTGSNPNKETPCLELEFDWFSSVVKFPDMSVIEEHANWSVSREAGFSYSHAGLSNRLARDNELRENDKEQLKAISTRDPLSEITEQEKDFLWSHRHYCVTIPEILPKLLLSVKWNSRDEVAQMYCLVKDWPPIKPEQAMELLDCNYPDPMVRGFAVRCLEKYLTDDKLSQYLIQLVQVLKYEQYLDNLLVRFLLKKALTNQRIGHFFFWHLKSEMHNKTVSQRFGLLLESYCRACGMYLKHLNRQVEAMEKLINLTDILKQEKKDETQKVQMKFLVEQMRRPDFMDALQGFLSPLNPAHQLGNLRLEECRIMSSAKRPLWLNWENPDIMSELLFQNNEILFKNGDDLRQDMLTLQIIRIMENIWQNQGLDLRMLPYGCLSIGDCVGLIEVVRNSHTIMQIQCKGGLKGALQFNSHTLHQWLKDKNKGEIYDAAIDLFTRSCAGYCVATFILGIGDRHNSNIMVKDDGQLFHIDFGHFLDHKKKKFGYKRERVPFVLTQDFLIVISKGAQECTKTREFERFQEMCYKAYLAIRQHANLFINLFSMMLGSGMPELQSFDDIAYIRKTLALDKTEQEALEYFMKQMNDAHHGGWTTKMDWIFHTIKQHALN
Sequence of Mitogen-activated protein kinase 3 (Homo sapiens) (P27361 whole entry, the tested form may be a part): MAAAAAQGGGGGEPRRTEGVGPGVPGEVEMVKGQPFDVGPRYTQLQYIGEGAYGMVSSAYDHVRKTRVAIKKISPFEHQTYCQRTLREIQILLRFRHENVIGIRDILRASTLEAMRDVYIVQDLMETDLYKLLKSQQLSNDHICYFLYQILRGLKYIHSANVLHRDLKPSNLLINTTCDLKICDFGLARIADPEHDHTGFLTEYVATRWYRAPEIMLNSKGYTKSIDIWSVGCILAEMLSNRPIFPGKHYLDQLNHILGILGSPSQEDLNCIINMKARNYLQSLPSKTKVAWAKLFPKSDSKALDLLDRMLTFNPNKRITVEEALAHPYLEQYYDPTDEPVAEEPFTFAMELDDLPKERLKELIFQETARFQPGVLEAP

COc1cc(N2CCC(N3CCN(C)CC3)CC2)ccc1Nc1ncc2c(n1)N(C)c1ccccc1C(=O)N2C
inhibition [1]: 100%
inhibition [2]: 100%
inhibition [3]: 100%
inhibition [4]: 100%
inhibition [5]: 100%
inhibition [6]: 100%
inhibition [7]: 100%
inhibition [8]: 100%
inhibition [9]: 100%
inhibition [10]: 77%
inhibition [11]: 38%
inhibition [12]: 88%
inhibition [13]: 100%
inhibition [14]: 51%
inhibition [15]: 78%
inhibition [16]: 100%
residual activity [17]: 90%
residual activity [18]: 51%
residual activity [19]: 84%
residual activity [20]: 50%
residual activity [21]: 87%
residual activity [22]: 95%
residual activity [23]: 95%
residual activity [24]: 90%
residual activity [25]: 81%

COc1cc(C(=O)N2CCC(N3CCN(C)CC3)CC2)ccc1Nc1ncc2c(n1)N(C1CCCC1)c1ccccc1C(=O)N2C
inhibition [26]: -0.7%

CCOc1cc(C(=O)N2CCC(N3CCN(C)CC3)CC2)ccc1Nc1ncc2c(n1)N(C1CCCC1)c1ccccc1C(=O)N2C
inhibition [27]: inactive
inhibition [28]: inactive
inhibition [29]: 0%

Reference: ChEMBL document CHEMBL5678810
